According to PubChem BioAssay (NCI):
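Five compound concentrations were applied to cells in 96-well plates for 48 hours; endpoints were derived by simple linear interpolation of the resulting dose-response curve. TGI: concentration producing complete growth inhibition.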

Experiments:
Assay in all cases: NCI-60 cell line screen, 48 h
HCT-116 colon = system: HCT-116 colon
NCI-H23 lung = system: NCI-H23 lung
LOX IMVI melanoma = system: LOX IMVI melanoma
A549 NSCLC = system: A549 NSCLC
COLO 205 colon = system: COLO 205 colon
UACC-257 melanoma = system: UACC-257 melanoma
U251 CNS = system: U251 CNS
SK-OV-3 ovarian = system: SK-OV-3 ovarian
A498 renal = system: A498 renal
SNB-19 CNS = system: SNB-19 CNS
MOLT-4 leukemia = system: MOLT-4 leukemia
HCT-15 colon = system: HCT-15 colon
M14 melanoma = system: M14 melanoma
OVCAR-5 ovarian = system: OVCAR-5 ovarian
SF-268 CNS = system: SF-268 CNS
786-0 renal = system: 786-0 renal
OVCAR-4 ovarian = system: OVCAR-4 ovarian
MDA-MB-435 = system: MDA-MB-435
SK-MEL-2 melanoma = system: SK-MEL-2 melanoma
HL-60(TB) leukemia = system: HL-60(TB) leukemia

SMILES	TGI (HCT-116 colon)	TGI (NCI-H23 lung)	TGI (LOX IMVI melanoma)	TGI (A549 NSCLC)	TGI (COLO 205 colon)	TGI (UACC-257 melanoma)	TGI (U251 CNS)	TGI (SK-OV-3 ovarian)	TGI (A498 renal)	TGI (SNB-19 CNS)	TGI (MOLT-4 leukemia)	TGI (HCT-15 colon)	TGI (M14 melanoma)	TGI (OVCAR-5 ovarian)	TGI (SF-268 CNS)	TGI (786-0 renal)	TGI (OVCAR-4 ovarian)	TGI (MDA-MB-435)	TGI (SK-MEL-2 melanoma)	TGI (HL-60(TB) leukemia)
O=c1[nH]c(=O)n(C2C(CO)OC(CO)C2O)cc1F (centres undefined)	> 100 µM	> 100 µM	> 100 µM	> 100 µM	> 100 µM	> 100 µM	> 100 µM	> 100 µM	> 100 µM	> 100 µM	> 100 µM	> 100 µM	> 100 µM	> 100 µM	> 100 µM	> 100 µM	> 100 µM	> 100 µM	> 100 µM	
Nc1[nH]c(=O)[nH]c(=O)c1Cc1cccc(Cl)c1	> 100 µM	> 100 µM	> 100 µM	> 100 µM	> 100 µM	> 100 µM	> 100 µM	> 100 µM	> 100 µM	> 100 µM		> 100 µM	> 100 µM	> 100 µM	> 100 µM	> 100 µM	> 100 µM	> 100 µM	> 100 µM	
COc1cc(C(=O)O)c(-c2cc3c(cc2C=O)OCO3)c(OC)c1OC	> 10 µM	> 10 µM	> 10 µM	> 10 µM	> 10 µM	> 10 µM	> 10 µM	> 10 µM		> 10 µM	> 10 µM	> 10 µM	> 10 µM		> 10 µM	> 10 µM	> 10 µM	> 10 µM		> 10 µM
O=C1CSC(c2ccccc2O)N1c1ccc(Oc2ccc(Cl)cc2)c(Cl)c1 (centres undefined)	28.6 µM	46.6 µM	32.8 µM	49.3 µM	35 µM	81.4 µM	39.5 µM	47.9 µM		65 µM	81 µM	46.9 µM	76.9 µM	81.8 µM	31.4 µM	36.4 µM	66.1 µM	69 µM	65.7 µM	51.2 µM
Nc1ccc(-c2nc3ccc(F)cc3s2)cc1I	> 100 µM	> 100 µM	> 100 µM	> 100 µM	> 100 µM	> 100 µM	> 100 µM	> 100 µM	> 100 µM	> 100 µM	> 100 µM	> 100 µM	> 100 µM	> 100 µM	> 100 µM	> 100 µM		> 100 µM	> 100 µM	
CC(=O)N(CC(=O)C(=O)NNc1ccoc1)c1ccc(Cl)cc1	> 100 µM	> 100 µM	> 100 µM	> 100 µM	> 100 µM	> 100 µM	> 100 µM	> 100 µM		> 100 µM	> 100 µM	> 100 µM	> 100 µM	> 100 µM	> 100 µM	> 100 µM	> 100 µM	> 100 µM	> 100 µM	
